In US8119624B2, “Fused phenyl amido heterocyclic compounds” (Pfizer Inc., priority 2006, dated 2012):
Read-outs that look alike come from different tables or passages of the source.

Molecular target: T1, Full-length glucokinase (beta cell isoform) (Homo sapiens, UniProt P35557)
T1 construct: Full-length glucokinase (beta cell isoform) was His-tagged at N-terminus; His tag (N); made in house
T1 sequence (P35557 1-465): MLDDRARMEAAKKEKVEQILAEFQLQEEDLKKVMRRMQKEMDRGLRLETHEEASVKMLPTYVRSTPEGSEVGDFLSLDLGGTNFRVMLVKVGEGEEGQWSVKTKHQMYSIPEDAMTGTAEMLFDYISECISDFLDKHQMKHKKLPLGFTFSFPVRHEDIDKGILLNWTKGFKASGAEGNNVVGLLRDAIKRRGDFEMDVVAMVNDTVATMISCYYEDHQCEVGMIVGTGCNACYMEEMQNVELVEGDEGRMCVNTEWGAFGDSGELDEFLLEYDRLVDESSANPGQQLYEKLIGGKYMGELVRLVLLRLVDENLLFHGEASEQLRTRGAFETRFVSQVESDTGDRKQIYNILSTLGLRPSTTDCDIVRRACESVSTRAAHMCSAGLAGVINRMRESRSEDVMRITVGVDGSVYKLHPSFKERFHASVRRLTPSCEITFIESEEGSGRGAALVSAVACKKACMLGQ
Assay: Glucokinase biochemical assay (PK/LDH-coupled, NADH depletion at 340 nm): % activation, EC50, % max activation
Settings: 5 mM glucose; for activation at 10 µM: read-out: % Activation at 10 uM; for EC50: read-out: EC50; for % Max Activation / Emax: fitted maximum activation; for Emax: read-out: % Max Activation
Procedure, shortened: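 Activation expressed as (Va/Vo−1)×100, where initial rates with and without compound come from NADH depletion at 340 nm over 200–900 s. Enzyme is His-tagged human beta-cell GK, full length, run at room temperature in HEPES buffer with 1 mM ATP and 5 mM glucose. DMSO 1%.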

[1] = 10 uM compound, % Activation=(Va/Vo−1)×100
[2] = compound at 10 uM, 1 mM ATP, room temperature

SMILES	activation at 10 µM [1]	EC50 (GK activation)	Emax	other results
CC(=O)N1CC(Oc2cc(C(=O)Nc3cnn(C)n3)cc3c2CC(C)(C)O3)C1 [Example 195, 4-(1-Acetyl-azetidin-3-yloxy)-2,2-dimethyl-2,3-dihydro-benzofuran-6-carboxylic acid (2-methyl-2H-[1,2,3]triazol-4-yl)-amide]	98.9%	> 10000 nM	–	–
COCC1Cc2c(Oc3ccc(C(=O)N(C)C)c(F)c3)cc(C(=O)Nc3ccn(C)n3)cc2O1 (single isomer, unassigned; (+)) [Example 207, (+)-4-(4-Dimethylcarbamoyl-3-fluoro-phenoxy)-2-methoxymethyl-2,3-dihydro-benzofuran-6-carboxylic acid (1-methyl-1H-pyrazol-3-yl)-amide]	–	950 nM	–	% Activation at 10 uM [1]: 127%; % Max Activation: 142%
CN1CCN(C(=O)c2ccc(Oc3cc(C(=O)Nc4ccn(C)n4)cc4c3CC(C)(C)O4)cc2F)CC1 [Example 53, 4-[3-Fluoro-4-(4-methyl-piperazine-1-carbonyl)-phenoxy]-2,2-dimethyl-2,3-dihydro-benzofuran-6-carboxylic acid(1-methyl-1H-pyrazol-3-yl)-amide]	125%	650 nM	135%	–
Cn1ccc(NC(=O)c2cc(Oc3cc(F)ccc3C(=O)N3CCC3)c3c(c2)OC(C)(C)C3)n1 [Example 34, 4-[2-(Azetidine-1-carbonyl)-5-fluoro-phenoxy]-2,2-dimethyl-2,3-dihydro-benzofuran-6-carboxylic acid(1-methyl-1H-pyrazol-3-yl)-amide]	75.1%	> 10000 nM	–	–
COCC1Cc2c(Oc3ccc(C(=O)N(C)C)c(F)c3)cc(C(=O)Nc3ccn(C)n3)cc2O1 (single isomer, unassigned; (-)) [Example 206, (−)-4-(4-Dimethylcarbamoyl-3-fluoro-phenoxy)-2-methoxymethyl-2,3-dihydro-benzofuran-6-carboxylic acid (1-methyl-1H-pyrazol-3-yl)-amide]	–	270 nM	–	% Activation at 10 uM [1]: 91.3%; % Max Activation: 102%
Cc1ccc(NC(=O)c2cc(Oc3ccc(S(C)(=O)=O)cc3)c3oc(C)nc3c2)nc1 [Example 369, 2-Methyl-N-(5-methylpyridin-2-yl)-7-[4-(methylsulfonyl)-phenoxy]-1,3-benzoxazole-5-carboxamide]	66.1%	3700 nM	66%	–
Cn1ncc(NC(=O)c2cc(Oc3ccc(S(C)(=O)=O)cc3)c3cc(C(=O)N4CCC4)oc3c2)n1 [Example 292, 2-(Azetidin-1-ylcarbonyl)-4-[4-(methylsulfonyl)phenoxy]-N-(2-methyl-2H-1,2,3-triazol-4-yl)-1-benzofuran-6-carboxamide]	16.7%	–	–	–
Cn1ccc(NC(=O)c2cc(Oc3cc(F)ccc3S(C)(=O)=O)c3c(c2)OC(C)(CO)C3)n1 (centres unmarked) [Example 235, 4-(5-Fluoro-2-methanesulfonyl-phenoxy)-2-hydroxymethyl-2-methyl-2,3-dihydro-benzofuran-6-carboxylic acid (1-methyl-1H-pyrazol-3-yl)-amide]	69.2%	> 10000 nM	–	–
Cc1ccc(NC(=O)c2cc(Oc3ccc(C(=O)N(C)C)nc3)c3c(c2)OC(C)(C)C3)nc1 [Example 165, 5-[2,2-Dimethyl-6-(5-methyl-pyridin-2-ylcarbamoyl)-2,3-dihydro-benzofuran-4-yloxy]-pyridine-2-carboxylic acid dimethylamide]	76.8%	38 nM	57%	–
CN(C)C(=O)c1ccc(Oc2cc(C(=O)Nc3ccn(C)n3)cc3c2CC(C)(C)O3)c(Cl)c1 [Example 107, 4-(2-Chloro-4-dimethylcarbamoyl-phenoxy)-2,2-dimethyl-2,3-dihydro-benzofuran-6-carboxylic acid (1-methyl-1H-pyrazol-3-yl)-amide]	173%	97 nM	163%	–
CN(C)S(=O)(=O)c1ccc(Oc2cc(C(=O)Nc3cnn(C)n3)cc3c2CC(C)(C)O3)cc1 [Example 134, 4-(4-Dimethylsulfamoyl-phenoxy)-2,2-dimethyl-2,3-dihydro-benzofuran-6-carboxylic acid (2-methyl-2H-[1,2,3]triazol-4-yl)-amide]	300%	190 nM	271%	–
Cn1ccc(NC(=O)c2cc(Oc3ccc(C(F)F)cc3)c3c(c2)OC(C)(C)C3)n1 [Example 38, 4-(4-Difluoromethyl-phenoxy)-2,2-dimethyl-2,3-dihydro-benzofuran-6-carboxylic acid(1-methyl-1H-pyrazol-3-yl)-amide]	109%	2400 nM	149%	–
CCN1Cc2c(Oc3ccc(S(C)(=O)=O)cc3)cc(C(=O)Nc3ccn(C)n3)cc2C1=O [Example 380, 2-Ethyl-N-(1-methyl-1H-pyrazol-3-yl)-7-(4-(methylsulfonyl)-phenoxy)-3-oxoisoindoline-5-carboxamide]	–	–	–	EC50 (1 mM ATP, room temperature): > 10000 nM; activation at 10 µM [2]: 67.9%
Cn1ccc(NC(=O)c2cc(Oc3ccc(C#N)cc3F)c3c(c2)OC(C)(C)C3)n1 [Example 31, 4-(4-Cyano-2-fluoro-phenoxy)-2,2-dimethyl-2,3-dihydro-benzofuran-6-carbo-xylic acid(1-methyl-1H-pyrazol-3-yl)-amide]	135%	2100 nM	153%	–
Cc1ccc(NC(=O)c2cc(Oc3ccc(S(C)(=O)=O)cc3)c3c(c2)C(=O)N(C)CC3)nc1 [Example 390, 2-Methyl-N-(5-methylpyridin-2-yl)-5-(4-(methylsulfonyl)-phenoxy)-1-oxo-1,2,3,4-tetrahydroisoquinoline-7-carboxamide]	–	–	–	activation at 10 µM [2]: 28.9%
Cc1cc2c(Oc3ccc(S(C)(=O)=O)cc3)cc(C(=O)Nc3ccc(Cl)cn3)cc2o1 [Example 260, N-(5-chloropyridin-2-yl)-2-methyl-4-(4-(methylsulfonyl)-phenoxy)benzofuran-6-carboxamide]	53.1%	2900 nM	69%	–
COc1cc(C(=O)Nc2ccc(C)cn2)c2nc(C)[nH]c2c1 [Example 373, 6-Methoxy-2-methyl-1H-benzoimidazole-4-carboxylic acid(5-methyl-pyridin-2-yl)-amide]	-1.1%	–	–	–
CC(C)Oc1cc(C(=O)Nc2ccn(C)n2)cc2c1CC(CO)O2 (centres unmarked) [Example 215, 2-Hydroxymethyl-4-isopropoxy-2,3-dihydro-benzofuran-6-carboxylic acid (1-methyl-1H-pyrazol-3-yl)-amide]	16.7%	–	–	–
Cc1ccc(C(=O)COc2cc(C(=O)Nc3ccn(C)n3)cc3c2CC(C)(C)O3)cn1 [Example 103, 2,2-Dimethyl-4-[2-(6-methyl-pyridin-3-yl)-2-oxo-ethoxy]-2,3-dihydro-benzofuran-6-carboxylic acid (1-methyl-1H-pyrazol-3-yl)-amide]	78.9%	4700 nM	94%	–
Cn1ccc(NC(=O)c2cc(Oc3ccc(C(=O)N4CC(F)C4)nc3)c3c(c2)OC(C)(C)C3)n1 [Example 397, 4-[6-(3-Fluoro-azetidine-1-carbonyl)-pyridin-3-yloxy]-2,2-dimethyl-2,3-dihydro-benzofuran-6-carboxylic acid(1-methyl-1H-pyrazol-3-yl)-amide]	–	–	–	EC50 (1 mM ATP, room temperature): 83 nM; activation at 10 µM [2]: 213%; Emax (1 mM ATP): 202%
COCC1(C)Cc2c(Oc3ccc(S(C)(=O)=O)cc3)cc(C(=O)Nc3ccn(C)n3)cc2O1 (centres unmarked) [Example 228, 4-(4-Methanesulfonyl-phenoxy)-2-methoxymethyl-2-methyl-2,3-dihydro-benzofuran-6-carboxylic acid (1-methyl-1H-pyrazol-3-yl)-amide]	151%	500 nM	156%	–
Cc1ccc(NC(=O)c2cc(Oc3ccc(S(=O)(=O)C4CC4)c(F)c3)c3c(c2)OC(C)(CO)C3)nc1 (single isomer, unassigned; (-)) [Example 402, (−)-4-(4-Cyclopropanesulfonyl-3-fluoro-phenoxy)-2-hydroxymethyl-2-methyl-2,3-dihydro-benzofuran-6-carboxylic acid(5-methyl-pyridin-2-yl)-amide]	–	–	–	% Activation at 10 uM [2]: 19.9%
CC(C)N1Cc2c(Oc3ccc(S(C)(=O)=O)cc3)cc(C(=O)Nc3ccn(C)n3)cc2C1=O [Example 384, 2-Isopropyl-N-(1-methyl-1H-pyrazol-3-yl)-7-(4-(methylsulfonyl)-phenoxy)-3-oxoisoindoline-5-carboxamide]	–	–	–	activation at 10 µM [2]: 33.2%
COCCN(C)C(=O)c1ccc(Oc2cc(C(=O)Nc3ccn(C)n3)cc3c2CC(C)(C)O3)cc1F [Example 64, 4-{3-Fluoro-4-[(2-methoxy-ethyl)-methyl-carbamoyl]-phenoxy}-2,2-dimethyl-2,3-dihydro-benzofuran-6-carboxylic acid(1-methyl-1H-pyrazol-3-yl)-amide]	172%	270 nM	158%	–
